Data as given in paper PMC3671673, “In Vitro Morphological Assessment of Apoptosis Induced by Antiproliferative Constituents from the Rhizomes of Curcuma zedoaria” (Evidence-based Complementary and Alternative Medicine : eCAM, 2013).
Values after ≈ are worked out from the molar mass of the structure shown. Marks after values point to notes of the source that are not given here.

Experiments:
[1] = tested on: HCT-116 cells; assay: Morphological changes by phase contrast inverted microscope, HCT-116; format: cell-based, human; settings: HCT-116, 48 h, 12.5-50 μg/mL, phase contrast 200x
Experimental: (§1) Observation of morphological changes of apoptotic cells was performed according to the method with slight modifications. Briefly, 5 × 10^5 cells were incubated for 48 hours with or without selected compounds at concentrations of 12.5, 25, 40, and 50 μg/mL in a 60 mm diameter tissue culture dishes. The medium was discarded and cells were washed once with PBS. The morphological changes of the apoptotic cells were observed using phase contrast inverted microscope (Leica DMI 3000B, Germany) at 200x magnifications.

[2] = tested on: noncancer human lung fibroblast cell line (MRC-5); assay: Neutral red cytotoxicity assay, MRC-5; format: cell-based; settings: MRC5, isolated compounds, 72 h, mean ± SD of three replicates, read-out: IC50 (μg/mL) MRC-5
Experimental: The human cancer cells KB, Ca Ski, MCF-7, HCT-116, A549, and noncancer human cell lines (MRC-5) were purchased from the American Tissue Culture Collection (ATCC, USA). The supplemented RPMI 1640 media and eagle minimum essential medium (EMEM) were purchased from Sigma-Aldrich, USA. The supplements or antibiotics such as foetal bovine serum (FBS), penicillin/streptomycin (P/S) (100 μg/mL), amphotericin B (50 μg/mL), and accutase were purchased from PAA Laboratories, Austria. Sodium pyruvate (11 mg/mL) purchased from Sigma-Aldrich, USA. The cells were cultured in a SHEL LAB water-jacketed CO2 incubator with […] tissue culture flasks (Nunc, Denmark), which was observed routinely under inverted microscope (Leica DMI3000 B, Germany) for any contamination and seeded into 96-well flat bottom microtiter plate (Nunc, Denmark). The extract or pure compounds was dissolved in dimethyl sulfoxide (DMSO, Molecular Biology Grade, >99.9%) from Sigma-Aldrich, USA. Microtiter plate incubator shaker (LT Biomax 500) was used and absorbance was measured at 540 nm using an ELISA microplate reader (EMax microplate reader of Molecular Devices, USA). MCF-7 and Ca Ski were cultured in RPMI 1640 media supplemented with 10% v/v FBS, P/S, and amphotericin B and MRC-5 in EMEM media with 10% v/v FBS, P/S, amphotericin B, and sodium pyruvate. The cells were cultured in tissue culture flask in 5% CO2 incubator kept at 37°C in a humidified atmosphere and observed routinely under inverted microscope from any contaminations. Each fresh medium was replaced every 2 or 3 days until cell confluence was achieved and the cells were detached by using accutase.
The in vitro cytotoxicity activity was performed using the neutral red cytotoxicity assay based on the initial protocol as described earlier with some modifications. Briefly, cells were detached from the tissue culture flask with 1.0 mL solution of accutase and PBS solution. The cell pellet was obtained by centrifugation at 1,000 rpm for 5 minutes. The density of the viable cells was counted by 0.4% of trypan blue exclusion in a haemocytometer. Cells were then plated in 96-well microtiter plate (Nunc), at a concentration of 1 × 10^4 cells/well and incubated in a CO2 incubator at 37°C to allow the cells to adhere. After 24 h, the cells were treated with six different concentrations, that is, 1, 10, 25, 50, 75, and 100 μg/mL of each tested agent in three replicates. The plates were incubated for 72 h at 37°C in a 5% CO2 incubator. The untreated cells were regarded as a negative control, whilst cells incubated only with DMSO (0.5%, v/v) were used as a vehicle control. No effect due to the DMSO was observed. Doxorubicin was used as the positive control. After 72 h, the old medium was substituted with fresh medium containing 50 μg/mL neutral red. The 96-well plates were placed into incubator for 3 h. This is to allow the uptake of the vital dye into the lysosomes of viable and undamaged cells. Then, the media was discarded and cells were washed with 200 μL of neutral red washing solution. The dye was eluted from the cells by adding neutral red resorb solution (200 μL). The plate was further incubated for 30 min with rapid agitation on a microtiter plate shaker. The optical density (OD) of the eluted dye was read at 540 nm using a microplate reader. The experiments were conducted in triplicates. […] Cytotoxicity of each test agent is expressed as IC50 value. […]

[3] = tested on: MCF-7 cells; assay: Hoechst 33342/PI dual staining, quantification of apoptotic/necrotic cells, MCF-7; format: cell-based, human; settings: 48 h
Experimental: Briefly, cells were grown on tissue culture dishes and treated with or without tested compounds at concentrations of 12.5, 25, 40, and 50 μg/mL. After 48 hours, the cells were harvested and washed with cold PBS to a density of 5 × 10^5 cells/mL. The cells were suspended in Hoechst 33342 solution (10 μg/mL) and were incubated at 37°C in CO2 for 7 minutes. After incubation with Hoechst 33342, the cells were counter stained with propidium iodide (2.5 μg/mL). The samples were maintained in the dark for 15 minutes. After staining, an aliquot of cell suspension was placed on a glass microscope slides. The slides were observed immediately under inverted fluorescence microscope (DM16000B, Germany) using UV/488 dual excitation and the fluorescence was measured at ~460 nm emission of Hoechst 33342 dye and >575 nm emission of propidium iodide at 630x magnification. At least 200 total target cells were counted and the numbers of each four cellular states were recorded and analyzed using fluorescence microscopy for quantification of apoptosis and necrosis. The experiment was conducted in triplicates. The percentages of apoptotic and necrotic cells were determined according to the following formula [27]: (1) Percentage of Apoptotic Cells (%) =(LA+DA)/ LN+LA+DN+DA×100,Percentage of Necrotic Cells (%) = DN/LN+LA+DN+DA×100, where LN are live target cells with normal nuclei (Hoechst 33342/PI: blue chromatin with organized structure), LA are live cells with apoptotic nuclei (Hoechst 33342/PI: bright blue chromatin that is highly condensed or fragmented), DN are dead cells with normal nuclei (Hoechst 33342/PI: pink chromatin with organized structure), and DA are dead cells with apoptotic nuclei (Hoechst 33342/PI: bright pink chromatin that is, highly condensed or fragmented).

[4] = tested on: Ca Ski cells; assay: Morphological changes by phase contrast inverted microscope, Ca Ski; format: cell-based, human; settings: 48 h, 12.5-50 μg/mL, phase contrast 200x
Experimental: as §1

[5] = tested on: MCF-7 cells; assay: Morphological changes by phase contrast inverted microscope, MCF-7; format: cell-based, human; settings: MCF-7, 48 h, 12.5-50 μg/mL, phase contrast 200x
Experimental: as §1

SMILES	morphological changes (in words) [1]	IC50 [2] [µg/mL]	Percentage of apoptotic cells (%) ([3]; MCF-7, 12.5 μg/mL)	Percentage of necrotic cells (%) ([3]; MCF-7, 12.5 μg/mL)	Percentage of apoptotic cells (%) ([3]; MCF-7, 25 μg/mL)	Percentage of necrotic cells (%) ([3]; MCF-7, 25 μg/mL)	Percentage of apoptotic cells (%) ([3]; MCF-7, 40 μg/mL)	Percentage of necrotic cells (%) ([3]; MCF-7, 40 μg/mL)	Percentage of apoptotic cells (%) ([3]; MCF-7, 40 μg/mL, listed as alismol)	Percentage of apoptotic cells (%) ([3]; MCF-7, 50 μg/mL)	Percentage of necrotic cells (%) ([3]; MCF-7, 50 μg/mL)	Percentage of necrotic cells (%) ([3]; MCF-7, 50 μg/mL, listed as alismol)	morphological changes (in words) [4]	morphological changes (in words) [5]	Percentage of apoptotic cells (%) ([3]; MCF-7, 40 μg/mL, listed as curzerenone)
C=C1CCC(C(C)C)=CC2C1CC[C@@]2(C)O (stereo partly drawn) [Alismol, alismol]	typical apoptotic features	> 100	6.17 ± 0.58^a %	3.83 ± 0.30^a %	9.17 ± 1.5^b %	5.17 ± 1.50^b %	43.00 ± 1.0^d %	38.33 ± 1.30^c %	43.0 ± 1.0	29.63 ± 1.1^c %	58.97 ± 1.10^d %	59.0 ± 1.1	typical apoptotic features	typical apoptotic features	
C=CC1(C)Cc2occ(C)c2C(=O)C1C(=C)C (stereo not drawn) [Curzerenone, curzerenone]	typical apoptotic features	20 ± 1.2 (≈ 86.8 µM)	4.83 ± 0.58^a %	2.00 ± 1.30^a %	5.83 ± 0.76^a %	3.83 ± 0.60^b %	53.00 ± 2.2^b %	5.50 ± 1.30^c %		57.33 ± 4.65^b %	17.83 ± 2.60^d %		typical apoptotic features	typical apoptotic features	53.0 ± 2.2
